{"source": "paper PMC2710984", "about": "(International Journal of Peptide Research and Therapeutics, 2006)", "note": "Several values for one entry are separate records, joined by “and”; a condition that tells them apart may be missing. Identical values can stand only once. Square brackets hold non-standard residues; d marks the D form. Ends that are not written are not given here. Peptide text beside a SMILES is read from it. Abu = CC[C@H](N)C(=O)O; Lac = C[C@H](O)C(=O)O"}
{"biological_target": "XIAP BIR3 (Homo sapiens, UniProt P98170)", "sequence (P98170 241-356 limits assumed)": "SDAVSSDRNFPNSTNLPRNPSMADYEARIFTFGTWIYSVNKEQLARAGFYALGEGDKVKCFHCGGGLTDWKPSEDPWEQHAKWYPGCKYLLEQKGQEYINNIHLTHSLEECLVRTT", "assay": "Peptide–BIR3 binding assay", "settings": "not given", "units": {"IC50": "nM"}}
{"compound": "CC(C)[C@H](NC(=O)[C@H](C)N)C(=O)N[C@@H](C)C(=O)N[C@@H](Cc1ccccc1)C(N)=O", "note": "[Compound 6, AVAF]", "IC50": 750}
{"compound": "CC(C)[C@H](NC(=O)[C@H](C)N)C(=O)N1CCC[C@H]1C(N)=O", "note": "[Compound 5, AVP] (H-Ala-Val-Pro-NH2)", "IC50": "> 10000"}
{"compound": "CC(C)[C@H](NC(=O)[C@@H](N)CO)C(=O)N1CCC[C@H]1C(=O)N[C@@H](Cc1ccccc1)C(N)=O", "note": "[Compound 10, SVPF] (H-SVPF-NH2)", "IC50": 1000}
{"compound": "C[C@H](N)C(=O)N[C@H](C(=O)N1CCC[C@H]1C(=O)N[C@@H](Cc1ccccc1)C(N)=O)[C@@H](C)O", "note": "[Compound 17, ATPF] (H-ATPF-NH2)", "IC50": 200}
{"compound": "CC[C@H](N)C(=O)N[C@H](C(=O)N1CCC[C@H]1C(=O)N[C@@H](Cc1ccccc1)C(N)=O)C(C)C", "note": "[Compound 9, Abu–VPF] (H-[Abu]VPF-NH2)", "IC50": 120}
{"compound": "CC(C)[C@H](NC(=O)[C@H](C)O)C(=O)N1CCC[C@H]1C(=O)N[C@@H](Cc1ccccc1)C(N)=O", "note": "[Compound 14, Lac–VPF] (H-[Lac]VPF-NH2)", "IC50": "> 1600"}
{"compound": "CC[C@H](C)[C@H](NC(=O)[C@H](C)N)C(=O)N1CCC[C@H]1C(=O)N[C@@H](Cc1ccccc1)C(N)=O", "note": "[Compound 16, AIPF] (H-AIPF-NH2)", "IC50": 80}
{"compound": "AVPIA-NH2 [Compound 3, AVPIA]", "IC50": 300}
{"compound": "CC(C)C[C@H](NC(=O)[C@H](C)N)C(=O)N1CCC[C@H]1C(=O)N[C@@H](Cc1ccccc1)C(N)=O", "note": "[Compound 15, ALPF] (H-ALPF-NH2)", "IC50": 180}
{"compound": "CC(C)[C@H](NC(=O)[C@H](C)N)C(=O)N1C[C@H](O)C[C@H]1C(=O)N[C@@H](Cc1ccccc1)C(N)=O", "note": "[Compound 20, AV–Hyp–F]", "IC50": 1000}
{"compound": "CC[C@H](C)[C@H](NC(=O)[C@H](C)N)C(=O)N[C@@H](C)C(=O)N[C@@H](Cc1ccc(O)cc1)C(N)=O", "note": "[Compound 8, AIAY] (H-AIAY-NH2)", "IC50": 340}
{"biological_target": "XIAP BIR3 (Homo sapiens, UniProt P98170)", "assay": "Peptide–BIR3 binding assay", "settings": "IC50, inhibition of Smac–BIR3 interaction, FMAT"}
{"compound": "AVPIAQ-NH2 [Compound 2, AVPIAQ]", "IC50": "270 nM"}
{"compound": "AVPIAQK-NH2 [Compound 1, AVPIAQK]", "IC50": "400 nM and 390 nM"}
{"biological_target": "GST–BIR3 (Homo sapiens, UniProt P98170)", "sequence (P98170 241-356 limits assumed)": "as above", "assay": "not given", "assay_type": "biochemical", "settings": "not given", "units": {"IC50": "nM"}}
{"compound": "AVPIAQK-NH2 [Compound 1, AVPIAQK]", "IC50": 3000}
{"compound": "AVPFAQK-NH2 [AVPFAQK]", "IC50": 2000}
{"system": "XIAP BIR3 domain", "assay": "not given", "settings": "ref Nikolovska-Coleska et al., 2004; cited from earlier work", "units": {"IC50": "nM"}}
{"compound": "CCCCCCCCCCCC1=C(O)C(=O)C=C(O)C1=O", "note": "[Embelin]", "IC50": 4100}
